In paper PMC11167047 (Cell Death Discovery, 2024):

Assays:
Experiment in all cases: kinome screen (33PanQinase)
Assay type in all cases: biochemical
[1] = biological target: T1, PRKD2 (Homo sapiens, UniProt Q9BZL6)
T1 construct: purchased Reaction Biology Europe GmbH (formerly ProQinase)
T1 sequence (Q9BZL6 1-878): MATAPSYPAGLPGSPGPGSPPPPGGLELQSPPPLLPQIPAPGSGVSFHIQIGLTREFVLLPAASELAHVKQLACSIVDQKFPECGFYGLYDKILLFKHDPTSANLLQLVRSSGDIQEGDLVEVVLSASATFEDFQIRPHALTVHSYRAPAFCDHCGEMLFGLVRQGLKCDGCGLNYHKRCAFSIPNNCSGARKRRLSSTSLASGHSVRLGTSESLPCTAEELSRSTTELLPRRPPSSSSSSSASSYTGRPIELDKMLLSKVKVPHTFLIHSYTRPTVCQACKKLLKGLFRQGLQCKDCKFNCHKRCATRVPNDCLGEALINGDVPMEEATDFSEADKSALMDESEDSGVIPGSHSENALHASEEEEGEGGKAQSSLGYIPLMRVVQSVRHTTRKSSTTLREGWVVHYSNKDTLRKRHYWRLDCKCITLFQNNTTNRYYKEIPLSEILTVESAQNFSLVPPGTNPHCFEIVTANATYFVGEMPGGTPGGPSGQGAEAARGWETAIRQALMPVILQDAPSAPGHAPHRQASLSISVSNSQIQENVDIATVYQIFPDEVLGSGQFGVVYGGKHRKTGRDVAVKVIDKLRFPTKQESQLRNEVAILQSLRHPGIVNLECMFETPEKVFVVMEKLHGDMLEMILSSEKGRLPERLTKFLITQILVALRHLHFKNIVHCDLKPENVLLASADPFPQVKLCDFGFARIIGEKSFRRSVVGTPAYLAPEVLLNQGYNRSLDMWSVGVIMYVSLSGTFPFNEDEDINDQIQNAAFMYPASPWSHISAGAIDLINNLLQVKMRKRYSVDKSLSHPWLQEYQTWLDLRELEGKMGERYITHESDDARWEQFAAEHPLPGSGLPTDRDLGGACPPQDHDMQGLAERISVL
Method: (§1) The Kinome Screening was performed by Reaction Biology Europe GmbH (http://reactionbiology.com; Freiburg i. Br., Germany).

[2] = biological target: T2, BUB1B (Homo sapiens, UniProt O60566)
T2 construct: purchased Reaction Biology Europe GmbH (formerly ProQinase)
Method: as §1

[3] = biological target: T3, NLK (Homo sapiens, UniProt Q9UBE8)
T3 construct: purchased Reaction Biology Europe GmbH (formerly ProQinase)
T3 sequence (Q9UBE8 1-527): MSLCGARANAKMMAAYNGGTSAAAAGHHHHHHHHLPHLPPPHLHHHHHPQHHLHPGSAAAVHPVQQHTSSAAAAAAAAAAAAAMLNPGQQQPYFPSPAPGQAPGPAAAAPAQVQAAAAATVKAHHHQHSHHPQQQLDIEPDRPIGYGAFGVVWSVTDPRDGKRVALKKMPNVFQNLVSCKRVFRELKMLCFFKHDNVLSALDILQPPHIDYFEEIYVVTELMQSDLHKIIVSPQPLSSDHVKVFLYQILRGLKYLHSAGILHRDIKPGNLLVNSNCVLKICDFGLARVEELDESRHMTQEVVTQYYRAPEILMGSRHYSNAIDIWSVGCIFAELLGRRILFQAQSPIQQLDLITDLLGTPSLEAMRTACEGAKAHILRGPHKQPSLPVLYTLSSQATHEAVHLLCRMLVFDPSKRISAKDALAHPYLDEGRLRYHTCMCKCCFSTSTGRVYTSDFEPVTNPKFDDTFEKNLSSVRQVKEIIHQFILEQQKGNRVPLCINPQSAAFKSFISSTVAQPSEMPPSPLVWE
Method: as §1

[4] = biological target: T4, CLK1 (Homo sapiens, UniProt P49759)
T4 construct: purchased Reaction Biology Europe GmbH (formerly ProQinase)
T4 sequence (P49759 whole entry): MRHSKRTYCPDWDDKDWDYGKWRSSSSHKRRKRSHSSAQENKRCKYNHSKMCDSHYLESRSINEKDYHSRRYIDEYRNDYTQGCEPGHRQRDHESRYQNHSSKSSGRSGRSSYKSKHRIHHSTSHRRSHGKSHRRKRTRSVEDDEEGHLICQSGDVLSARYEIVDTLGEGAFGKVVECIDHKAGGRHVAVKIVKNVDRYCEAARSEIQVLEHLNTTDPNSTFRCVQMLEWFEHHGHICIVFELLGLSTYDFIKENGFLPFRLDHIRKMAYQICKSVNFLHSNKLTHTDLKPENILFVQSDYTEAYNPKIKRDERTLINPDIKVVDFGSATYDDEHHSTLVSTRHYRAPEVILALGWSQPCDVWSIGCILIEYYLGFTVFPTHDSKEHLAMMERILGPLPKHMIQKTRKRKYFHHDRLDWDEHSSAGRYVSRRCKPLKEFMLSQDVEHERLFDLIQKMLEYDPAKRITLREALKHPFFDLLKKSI
Method: as §1

[5] = biological target: T5, TNK1 (Homo sapiens, UniProt Q13470)
T5 construct: purchased Reaction Biology Europe GmbH (formerly ProQinase)
T5 sequence (Q13470 1-666): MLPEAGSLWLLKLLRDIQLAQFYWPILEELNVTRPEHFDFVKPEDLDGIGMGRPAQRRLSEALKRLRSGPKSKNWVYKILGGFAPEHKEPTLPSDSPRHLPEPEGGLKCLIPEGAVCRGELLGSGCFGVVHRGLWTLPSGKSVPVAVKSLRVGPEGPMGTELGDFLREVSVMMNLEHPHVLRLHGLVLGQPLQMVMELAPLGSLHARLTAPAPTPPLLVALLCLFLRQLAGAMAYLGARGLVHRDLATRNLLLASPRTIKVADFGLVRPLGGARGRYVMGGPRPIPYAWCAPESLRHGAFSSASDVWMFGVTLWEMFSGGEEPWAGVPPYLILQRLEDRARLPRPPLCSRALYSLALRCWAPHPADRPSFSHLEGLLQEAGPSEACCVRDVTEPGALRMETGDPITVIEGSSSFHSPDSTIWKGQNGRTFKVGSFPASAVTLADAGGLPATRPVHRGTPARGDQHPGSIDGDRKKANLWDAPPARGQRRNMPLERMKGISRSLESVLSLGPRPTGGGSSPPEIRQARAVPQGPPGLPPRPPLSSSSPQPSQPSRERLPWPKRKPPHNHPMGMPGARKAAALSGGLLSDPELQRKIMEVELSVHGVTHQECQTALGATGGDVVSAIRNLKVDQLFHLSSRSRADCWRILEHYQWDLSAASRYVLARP
Method: as §1

[6] = biological target: T6, LRRK2 (Homo sapiens, UniProt Q5S007)
T6 construct: purchased Reaction Biology Europe GmbH (formerly ProQinase)
T6 sequence (Q5S007 whole entry): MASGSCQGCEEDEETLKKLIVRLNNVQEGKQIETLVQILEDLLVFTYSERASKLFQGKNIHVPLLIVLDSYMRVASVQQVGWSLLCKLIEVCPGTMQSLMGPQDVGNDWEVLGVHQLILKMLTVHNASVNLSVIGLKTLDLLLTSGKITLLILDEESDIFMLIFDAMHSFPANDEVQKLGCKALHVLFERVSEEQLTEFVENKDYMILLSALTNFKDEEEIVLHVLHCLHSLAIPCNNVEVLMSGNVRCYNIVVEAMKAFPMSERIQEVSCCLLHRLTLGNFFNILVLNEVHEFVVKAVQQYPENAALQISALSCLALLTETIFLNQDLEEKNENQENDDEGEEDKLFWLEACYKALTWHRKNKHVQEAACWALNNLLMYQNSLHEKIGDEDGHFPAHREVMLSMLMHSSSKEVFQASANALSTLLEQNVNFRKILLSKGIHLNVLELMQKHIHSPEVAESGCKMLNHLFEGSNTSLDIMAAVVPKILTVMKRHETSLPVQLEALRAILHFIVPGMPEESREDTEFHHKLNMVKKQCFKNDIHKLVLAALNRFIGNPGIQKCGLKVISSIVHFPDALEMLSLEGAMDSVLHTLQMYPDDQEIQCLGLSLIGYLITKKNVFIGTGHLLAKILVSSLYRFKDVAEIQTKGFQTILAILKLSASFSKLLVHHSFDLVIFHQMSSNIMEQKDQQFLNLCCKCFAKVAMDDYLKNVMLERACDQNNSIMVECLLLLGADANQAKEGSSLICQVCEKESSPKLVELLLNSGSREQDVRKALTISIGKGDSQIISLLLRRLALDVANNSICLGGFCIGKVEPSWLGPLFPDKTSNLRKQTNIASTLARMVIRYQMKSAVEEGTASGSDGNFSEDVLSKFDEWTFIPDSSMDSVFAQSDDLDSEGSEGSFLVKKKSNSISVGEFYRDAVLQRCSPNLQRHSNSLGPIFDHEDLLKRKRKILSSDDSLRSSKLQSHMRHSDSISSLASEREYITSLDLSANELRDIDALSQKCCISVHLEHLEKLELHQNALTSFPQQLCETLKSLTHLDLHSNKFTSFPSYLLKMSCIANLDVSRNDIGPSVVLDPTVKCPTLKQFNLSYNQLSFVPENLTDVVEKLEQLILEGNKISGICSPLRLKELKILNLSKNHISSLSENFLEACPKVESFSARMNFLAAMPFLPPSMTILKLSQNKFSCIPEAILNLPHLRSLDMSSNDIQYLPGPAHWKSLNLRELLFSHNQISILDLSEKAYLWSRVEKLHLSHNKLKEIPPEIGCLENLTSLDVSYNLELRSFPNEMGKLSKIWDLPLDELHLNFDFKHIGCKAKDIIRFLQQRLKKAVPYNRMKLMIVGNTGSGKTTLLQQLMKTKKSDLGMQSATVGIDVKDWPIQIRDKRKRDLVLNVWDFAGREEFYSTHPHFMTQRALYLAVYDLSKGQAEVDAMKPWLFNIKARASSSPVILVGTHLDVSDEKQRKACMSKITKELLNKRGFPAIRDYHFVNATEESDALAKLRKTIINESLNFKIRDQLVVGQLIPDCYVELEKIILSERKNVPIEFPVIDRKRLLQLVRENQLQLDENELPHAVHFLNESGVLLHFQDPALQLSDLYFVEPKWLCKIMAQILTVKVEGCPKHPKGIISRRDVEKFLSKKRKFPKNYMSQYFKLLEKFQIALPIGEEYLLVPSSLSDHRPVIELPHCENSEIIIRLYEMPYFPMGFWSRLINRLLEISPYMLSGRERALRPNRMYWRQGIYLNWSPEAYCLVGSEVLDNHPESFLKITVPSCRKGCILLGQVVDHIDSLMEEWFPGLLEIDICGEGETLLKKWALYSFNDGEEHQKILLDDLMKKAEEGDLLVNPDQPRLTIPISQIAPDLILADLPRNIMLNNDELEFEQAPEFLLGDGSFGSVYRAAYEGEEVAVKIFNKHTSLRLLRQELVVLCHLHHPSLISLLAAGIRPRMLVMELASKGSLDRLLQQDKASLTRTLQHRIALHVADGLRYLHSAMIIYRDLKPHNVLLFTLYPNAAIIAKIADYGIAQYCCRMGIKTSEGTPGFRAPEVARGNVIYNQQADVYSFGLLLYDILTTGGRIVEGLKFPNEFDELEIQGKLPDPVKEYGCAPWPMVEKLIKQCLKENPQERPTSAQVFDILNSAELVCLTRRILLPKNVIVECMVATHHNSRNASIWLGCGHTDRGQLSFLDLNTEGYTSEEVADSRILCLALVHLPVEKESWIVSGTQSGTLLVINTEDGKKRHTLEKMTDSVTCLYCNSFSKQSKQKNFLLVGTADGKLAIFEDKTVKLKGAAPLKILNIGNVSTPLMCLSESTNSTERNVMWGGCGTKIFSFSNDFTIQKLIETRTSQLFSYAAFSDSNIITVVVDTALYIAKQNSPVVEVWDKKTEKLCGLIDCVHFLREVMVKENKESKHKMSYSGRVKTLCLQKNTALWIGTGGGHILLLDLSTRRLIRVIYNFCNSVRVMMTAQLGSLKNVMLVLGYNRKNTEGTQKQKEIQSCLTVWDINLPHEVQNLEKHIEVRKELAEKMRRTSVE
Method: as §1

[7] = biological target: T7, CLK4 (Homo sapiens, UniProt Q9HAZ1)
T7 construct: purchased Reaction Biology Europe GmbH (formerly ProQinase)
T7 sequence (Q9HAZ1 whole entry): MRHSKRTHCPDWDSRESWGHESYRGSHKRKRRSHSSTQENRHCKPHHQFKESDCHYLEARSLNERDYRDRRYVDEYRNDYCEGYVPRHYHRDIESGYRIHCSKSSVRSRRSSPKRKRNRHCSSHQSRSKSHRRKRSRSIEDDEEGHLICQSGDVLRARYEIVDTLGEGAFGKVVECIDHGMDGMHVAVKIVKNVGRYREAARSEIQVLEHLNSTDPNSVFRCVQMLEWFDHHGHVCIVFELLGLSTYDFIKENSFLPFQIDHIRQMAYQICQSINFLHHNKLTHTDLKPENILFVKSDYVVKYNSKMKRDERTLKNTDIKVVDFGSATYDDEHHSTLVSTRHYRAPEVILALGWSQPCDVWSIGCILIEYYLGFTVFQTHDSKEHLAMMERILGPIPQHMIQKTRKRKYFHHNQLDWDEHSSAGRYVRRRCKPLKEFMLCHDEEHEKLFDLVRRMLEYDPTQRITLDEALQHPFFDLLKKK
Method: as §1

[8] = biological target: T8, EGFR (Homo sapiens, UniProt P00533)
T8 construct: purchased Reaction Biology Europe GmbH (formerly ProQinase)
T8 sequence (P00533 25-1210): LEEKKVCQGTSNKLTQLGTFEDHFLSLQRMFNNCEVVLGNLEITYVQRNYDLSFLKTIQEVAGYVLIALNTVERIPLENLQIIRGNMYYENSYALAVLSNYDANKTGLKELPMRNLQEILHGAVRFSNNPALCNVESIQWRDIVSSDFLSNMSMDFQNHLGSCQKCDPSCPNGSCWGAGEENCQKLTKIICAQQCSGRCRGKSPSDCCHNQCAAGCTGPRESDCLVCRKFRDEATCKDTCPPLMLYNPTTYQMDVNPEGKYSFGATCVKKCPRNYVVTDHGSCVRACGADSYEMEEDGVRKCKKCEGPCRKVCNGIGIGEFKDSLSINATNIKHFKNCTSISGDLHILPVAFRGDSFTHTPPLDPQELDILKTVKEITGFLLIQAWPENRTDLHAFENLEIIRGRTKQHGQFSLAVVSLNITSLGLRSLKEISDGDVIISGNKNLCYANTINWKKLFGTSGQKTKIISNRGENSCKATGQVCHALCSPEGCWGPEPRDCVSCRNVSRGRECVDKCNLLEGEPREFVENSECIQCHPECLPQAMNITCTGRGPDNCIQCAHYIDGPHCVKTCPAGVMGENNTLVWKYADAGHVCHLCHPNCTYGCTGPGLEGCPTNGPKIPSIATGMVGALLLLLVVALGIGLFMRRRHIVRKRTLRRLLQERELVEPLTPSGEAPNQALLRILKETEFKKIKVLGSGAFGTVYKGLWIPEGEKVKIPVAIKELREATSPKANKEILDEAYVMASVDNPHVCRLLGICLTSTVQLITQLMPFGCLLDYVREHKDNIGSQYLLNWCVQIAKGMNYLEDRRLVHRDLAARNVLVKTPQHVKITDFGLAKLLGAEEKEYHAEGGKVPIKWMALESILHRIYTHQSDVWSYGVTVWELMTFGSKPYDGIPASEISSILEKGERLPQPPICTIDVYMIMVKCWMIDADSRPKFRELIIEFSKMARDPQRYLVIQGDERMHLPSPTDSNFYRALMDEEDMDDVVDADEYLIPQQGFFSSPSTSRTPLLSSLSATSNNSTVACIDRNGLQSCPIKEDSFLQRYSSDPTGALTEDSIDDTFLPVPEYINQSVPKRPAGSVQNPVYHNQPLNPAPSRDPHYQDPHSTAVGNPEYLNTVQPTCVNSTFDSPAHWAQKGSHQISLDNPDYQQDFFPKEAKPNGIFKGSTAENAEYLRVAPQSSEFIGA
Method: as §1

Row | SMILES | residual kinase activity ([1]; 0.3 µM) | residual kinase activity ([2]; 0.3 µM) | residual kinase activity ([3]; 0.3 µM) | residual kinase activity ([4]; 0.3 µM) | residual kinase activity ([5]; 0.3 µM) | residual kinase activity ([6]; 0.3 µM) | residual kinase activity ([7]; 0.3 µM) | residual kinase activity ([8]; 0.3 µM) | other results
1 | COc1ccnc2[nH]cc(-c3cc(N)nc(N)c3)c12 [meriolin 16] | 37 % of control | 81 % of control | 81 % of control | 3 % of control | 39 % of control | 8 % of control | 0 % of control | 90 % of control | residual kinase activity ([1]; 0.03 µM): 87 % of control; residual kinase activity ([2]; 0.03 µM): 88 % of control; residual kinase activity ([3]; 0.03 µM): 96 % of control; residual kinase activity ([4]; 0.03 µM): 11 % of control; residual kinase activity ([5]; 0.03 µM): 82 % of control; residual kinase activity ([6]; 0.03 µM): 50 % of control; residual kinase activity ([7]; 0.03 µM): 3 % of control; residual kinase activity ([8]; 0.03 µM): 109 % of control
2 | c1ccc(CNc2cc(-c3c[nH]c4ncccc34)ccn2)cc1 [meriolin 36] | 68 % of control | 89 % of control | 78 % of control | 4 % of control | 29 % of control | 1 % of control | 1 % of control | 107 % of control | residual kinase activity ([1]; 3 µM): 25 % of control; residual kinase activity ([2]; 3 µM): 73 % of control; residual kinase activity ([3]; 3 µM): 29 % of control; residual kinase activity ([4]; 3 µM): 2 % of control; residual kinase activity ([5]; 3 µM): 9 % of control; residual kinase activity ([6]; 3 µM): 1 % of control; residual kinase activity ([7]; 3 µM): 1 % of control; residual kinase activity ([8]; 3 µM): 53 % of control
